Common to all, as to format: physicochemical
Data set [1] can be described thus: Specific surface area by Brunauer-Emmerit-Teller (BET) method. The conditions noted are these: Model NOVA 2000. On the procedure: Each specific surface area of 4,4′-[(2,3,5,6-tetrafluoro-1,4-phenylene)bis(oxy)]bis(3,5,6-trifluorophthalic anhydride) obtained in the above-mentioned Preparation Example 4 and Comparative Preparation Example 2 was measured.
The specific surface area was measured using a Brunauer-Emmerit-Teller (BET) method (Model NOVA 2000 manufactured by Quantachrome Corporation).

Data set [2] in a line: Absorbance of acetone solution measured with a spectrophotometer (coloration). The conditions noted are these: wavelength 360 nm; 0.5 g dissolved in acetone to 10 g total. On the procedure:
0.5 g of 4,4′-[(2,3,5,6-tetrafluoro-1,4-phenylene)-bis(oxy)]bis(3,5,6-trifluorophthalic anhydride) obtained in the above-mentioned Preparation Example 4 was dissolved in acetone and adjusted so as to give 10 g of the total amount of the mixture. The absorbance in the visible region of this solution was measured with a spectrophotometer (UV-3100 manufactured by Shimadzu Corporation). The absorbance of the same compound prepared in the above-mentioned Comparative Preparation Example 2 was similarly measured.

A short description of data set [3]: Time to become a homogeneous solution when stirred with diamine in N,N-dimethylacetamide. Conditions: stirred at room temperature. On the procedure: Into a 100 milliliter—three necked flask were charged 14.51 g (24.92 mmol) of 4,4′-[(2,3,5,6-tetrafluoro-1,4-phenylene)bis(oxy)]bis(3,5,6-trifluorophthalic anhydride) obtained in Preparation Example 4, 4.48 g (24.92 mmol) of 1,3-diamino-2,4,5,6-tetrafluorobenzene and 31 g of N,N-dimethylacetamide. As this mixture was stirred at room temperature in an atmosphere of nitrogen, it took about 30 minutes before it became a homogeneous solution. By leaving standing further for 4 days, a light-yellow polyamic acid solution having a high viscosity was obtained.
Raw materials were charged into a three necked flask in the same manner as that of the above-mentioned Preparation Example 5 except for using a substance obtained in the above Comparative Preparation Example 2 instead of a substance obtained in the above Preparation Example 4 as the 4,4′-[(2,3,5,6-tetrafluoro-1,4-phenylene)bis(oxy)]bis(3,5,6-trifluorophthalic anhydride). As this mixture was stirred at room temperature as with the above-mentioned Preparation Example 5, it took about 1 hour before it became a homogeneous solution. By leaving standing further for 4 days, a yellow polyamic acid solution was obtained, but its viscosity was low. When its weight-average molecular weight was measured in the same manner as that of the above-mentioned Preparation Example 5, it was 6.04×10^4.

Each structure is given as a SMILES string.

On to `O=C1OC(=O)c2c(F)c(Oc3c(F)c(F)c(Oc4c(F)c(F)c5c(c4F)C(=O)OC5=O)c(F)c3F)c(F)c(F)c21` [Comparative Preparation Example 2, 4,4′-[(2,3,5,6-tetrafluoro-1,4-phenylene)bis(oxy)]bis(3,5,6-trifluorophthalic anhydride)], for which, in data set [1], the Specific surface area was found to be 2.869 m^2/g. Further, the Molar absorption coefficient in data set [2] is 0.672 L/mol/cm. Also, in data set [3] (same manner as Preparation Example 5, N,N-dimethylacetamide), the “Time before mixture became a homogeneous solution” value is given as “about 1 hour”.
Compound `O=C1OC(=O)c2c(F)c(Oc3c(F)c(F)c(Oc4c(F)c(F)c5c(c4F)C(=O)OC5=O)c(F)c3F)c(F)c(F)c21` [Preparation Example 4, 4,4′-[(2,3,5,6-tetrafluoro-1,4-phenylene)bis(oxy)]bis(3,5,6-trifluorophthalic anhydride)] registered a Specific surface area in data set [1] of 4.403 m^2/g. This compound also showed a Molar absorption coefficient in data set [2] of 0.258 L/mol/cm. Moreover, in data set [3] (14.51 g with 4.48 g 1,3-diamino-2,4,5,6-tetrafluorobenzene in 31 g N,N-dimethylacetamide, nitrogen), the “Time before mixture became a homogeneous solution” value is given as “about 30 minutes”.
